These results are taken from EP0533350B1, “DNA encoding precursor interleukin 1B converting enzyme” (Merck & Co., Inc., priority 1991, dated 1993).

Test [1] concerns the target T1, ICE (Homo sapiens, UniProt P29466).
T1 sequence (P29466 120-297): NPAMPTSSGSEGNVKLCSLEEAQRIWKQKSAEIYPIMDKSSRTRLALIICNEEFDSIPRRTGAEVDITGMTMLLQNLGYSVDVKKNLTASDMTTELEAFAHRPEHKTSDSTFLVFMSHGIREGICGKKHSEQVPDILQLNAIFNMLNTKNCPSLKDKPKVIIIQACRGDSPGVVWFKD
T1 sequence (P29466 317-404): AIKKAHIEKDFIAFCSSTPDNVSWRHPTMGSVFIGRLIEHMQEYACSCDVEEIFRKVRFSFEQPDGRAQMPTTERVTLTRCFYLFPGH
The test can be described thus: Protease inhibitor sensitivity of ICE: inhibitor added to THP.1 S-300, gel-based pre-IL-1β cleavage assay.

In test [2] the target is T1, ICE. The test can be described thus: Discontinuous kinetic assay of ICE with P14mer as substrate. It counts as biochemical. More on the design: endogenous in cells; host or cells: THP.1 cells, S-300 (300,000 x g) cytosolic supernatant. As to the method: Proteolytic cleavage of peptide substrates from Example 12 was carried out in the following manner. Samples of peptides were prepared in dimethyl sulfoxide at a concentration of 10 mM. The enzyme used in these studies was purified through sulfopropyl cation exhange chromatography. Reaction mixtures contained approximately 0.2 mg/ml enzyme, 0.2 mM peptide, 10% sucrose, 0.1% CHAPS (3-[(3-cholamidopropyl)dimethyl-ammonio]-1-propansulfon at), 10 mM HEPES (N-2-hydroxyethylpiperazine-N'-2-ethanesulfonic Acid), pH 7.5 in a 50 ul reaction volume. After incubation at 25 degrees for variable lengths of time, reactions were quenched with the addition of 450 ul 0.1% trifluoroacetic acid. The samples were analyzed by reverse-phase high performance liquid chromatography using a Vydac C-18 column (4.6 mm x 25 cm, 5 um particle size, 300 pore size) equilibrated with 5% acetonitrile, 0.1% trifluoroacetic acid at a flow rate of 1 ml/min. Peptides were eluted using a 10 min linear gradient of 5 to 30% acetonitrile and quantitated by monitoring the column effluent at 280 nm. Under these conditions substrate and tyrosine-containing product were separated with baseline resolution in every case. The identity of cleavage products was confirmed using peptide standards.
The data in Table 3 was generated using partially purified enzyme or THP-1 […] and the gel-based cleavage assay as an indicator of ICE activity. This has been verified and extended using the P14mer assay as well as Ac-Tyr-Val-Ala-Asp-AMC as substrates. The only exception to the results of this table came when 1,10 phenanthroline (OP) was tested as an inhibitor. […] The rate constant (8 x 10-2 s-1 M-1) for inactivation is slow and it is not possible to reconstitute ICE activity by addition of ZnC12 following treatment with the chelator. […] The data is not consistent with the hypothesis that ICE is a metalloprotease.

Test [3] concerns the target T1, ICE. The test can be described thus: Mixed disulfide treatment of ICE, continuous fluorometric assay, DTT reversal and dilution stability. The class given is biochemical. More on the design: endogenous in cells; host or cells: THP.1 cells, S-300 (300,000 x g) cytosolic supernatant.
Test [4] addresses T1, ICE. The test can be described thus: Size exclusion chromatography (TSK G2000) of GSSG or cystamine treated ICE. As to conditions: concentrated ICE pretreated 24 hrs, TSK G2000 column. Also on record: endogenous in cells; host or cells: THP.1 cells, S-300 (300,000 x g) cytosolic supernatant.
Test [5] addresses T1, ICE.
Description: Using 14C-iodoacetate as the alkylating reagent a similar protocol was used to identify proteins that could be labeled in the presence or absence of 200 x Km substrate. […] ICE and 100 mM 14-C-iodoacetate were incubated in the presence (+S) or absence (-S) of 2.8 mM Ac-Tyr-Val-Ala-Asp-AMC and incubated for 1 hour. At 1 hour the reaction is quenched by the addition of 10 mM unlabeled iodoacetate and 10 mM DTT. Aliquots of the reaction were analyzed by SDS-PAGE followed by coomassie blue staining or autoradiography.
Test [6] addresses T2, recombinant ICE (Homo sapiens, UniProt P29466).
T2 construct: transfection of full-length ICE cDNA, including the complete ORF of the 45 kDa ICE preprotein; expressed in transfected cells; host or cells: COS-7 cells, vector pSZ-9016 co-transfected with pX8TAT; detergent lysate
T2 sequence (P29466 120-297 limits assumed): T1 sequence (P29466 120-297)
T2 sequence (P29466 317-404 limits assumed): T1 sequence (P29466 317-404)
Description: IL-1β precursor cleavage by lysates of COS-7 cells transfected with full-length ICE cDNA. The class given is biochemical. As to conditions: lysates of COS-7 cells transfected with ICE cDNA. As to the method:
The expression of recombinant ICE was achieved by transfection of full-length ICE cDNA, including the complete ORF of the 45 kDa ICE preprotein (Fig. 23), into a mammalian host cell. The 1.6 kb EcoRI fragment containing the full length ICE cDNA was cloned into vector pSZ-9016. 6µg of this DNA along with 0.6 ug of pX8TAT, a mammalian expression vector which places the trans-activating protein (TAT) of HIV under the control of the SV40 early promoter, was transfected into COS-7 cells by the cationic-liposome method. Cells were harvested 48 hours later and lysed in detergent buffer (25 mM HEPES pH 7, 1% Triton-X-100, 1mM EDTA, 2mM DTT, 10 ug/ml aprotinin, 10 ug/ml leupeptin, 10 ug/ml pepstatin, and 2 mM PMSF). Cell lysates were incubated with radiolabeled IL-1β precursor to measure ICE activity. Cleavage products of IL-1β were analyzed by immunoprecipitation with IL-1B antibody and fractionation on SDS polyacrylamide gels. The IL-1β precursor was cleaved to the mature, 17 kDa form by cells transfected with ICE cDNA, but not by cells transfected with the expression plasmid alone. […] The substrate specificity of the expressed ICE activity was verified by incubating lysates with an IL-1β precursor cleavage site mutant (Ala^116) which cannot be cleaved by ICE. […]

In test [7] the target is T1, ICE. The test can be described thus: Inhibition of ICE by mechanism based thiol protease inhibitors (diazomethyl ketone, peptide aldehydes). More on the design: endogenous in cells; host or cells: THP.1 cells (or human peripheral blood monocytes); cytosolic extract, ammonium sulfate, DEAE, sulfopropyl cation exchange. It counts as biochemical. The conditions noted are these: relative to Ac-Tyr-Val-Ala-Asp-CHO. The text has this:
Characterization of ICE in terms of protease class was ultimately accomplished by the synthesis of two types of mechanism based thiol protease inhibitors, a diazomethyl ketone and a peptide aldehyde, both constructed from the Ac-Tyr-Val-Ala-Asp peptide. The peptidyl diazomethyl ketone (Ac-Tyr-Val-Ala-Asp-CHN2) and the peptide aldehyde (Ac-Tyr-Val-Ala-Asp-CHO) were both synthesized as described in an accompanying patent. […] However, the specificity of action on ICE has been determined by synthesis of a chemically similar peptide aldehyde, Ac-Tyr(dAla)-Val-Ala-Asp-CHO and tested for its ability to inhibit ICE in a competitive and reversible manner.

Read-outs that look alike come from different tables or passages of the source. Where a SMILES comes first, the peptide text is derived from it. [ ]: non-standard residue; d: D form. The star is where a group is joined. Sta = CC(C)C[C@H](N)[C@@H](O)CC(=O)O; Isovaleryl = CC(C)CC(=O)* Bounds are passed on as bounds.

On to `c1cnc2c(c1)ccc1cccnc12` [1,10-phenanthroline], for which the “inhibition of ICE activity in the gel based cleavage assay” value in test [1] is on record as “did not inhibit”. For the same molecule, in test [1] (Conc. 10 mM), the Inhibition result was “-”. The “inhibition of ICE activity” value in test [2] (P14mer as substrate) is “can inhibit ICE activity in a time and concentration dependant manner”. In test [2] (addition of 10 mM CuSO4 to assay containing 1.0 mM OP), the “increase in the rate at which ICE is inhibited” value stood at 17 fold. For the same molecule, the “inhibition of ICE on co-treatment with two metal chelators” value in test [2] (co-treatment with EDTA and OP) is given as “did not result in an inhibition of ICE”.
Take `CC(C)CC(=O)N[C@H](C(=O)N[C@H](C(=O)N[C@@H](CC(C)C)[C@@H](O)CC(=O)N[C@@H](C)C(=O)N[C@@H](CC(C)C)[C@@H](O)CC(=O)O)C(C)C)C(C)C` [Chloromethyl ketonePepstatin, Pepstatin] (Isovaleryl-VV[Sta]A[Sta]-OH): the Inhibition entry in test [1] (Conc. 100 µM) was “-”.
Take `CC(C)CC(NC(=O)C1OC1C(=O)O)C(=O)NCCCCNC(=N)N` (stereo not shown) [Compound E-64]: the Inhibition result in test [1] (Conc. 1 mM) is listed as “-”.
Regarding `NCCSSCCN` [Cystamine], the “half-time of time dependant decrease in activity” value in test [3] (5 mM cystamine) was determined as 19 min. Moreover, the enzyme activity recovered in test [3] (addition of DTT after the inactivation plateau, 5 mM cystamine) was determined as 23%. For the same molecule, the recovery of activity result in test [3] (concentrated ICE (3 units/ml), 5 mM cystamine, 3 day equilibration at 4 °C, then DTT) is “Complete recovery of activity”. The “stabilization of ICE activity” value in test [3] (upon dilution of treated enzyme) is recorded as “did not appear to stabilize ICE activity”. Also, the Inhibition result in test [1] (Conc. 1 mM) is recorded as “+”. The “apparent Mr of treated enzyme” value in test [4] is reported as 22,000.
On to `O=C(O)CN(CCN(CC(=O)O)CC(=O)O)CC(=O)O` [EDTA], for which, in test [1] (Conc. 50 mM), the Inhibition entry is listed as “-”.
Take `O=C(O)CN(CCOCCOCCN(CC(=O)O)CC(=O)O)CC(=O)O` [EGTA]: the Inhibition entry in test [1] (Conc. 10 mM) is “-”.
In the case of `NC(=O)CI` [Iodoacetamide], the Inhibition result in test [1] is recorded as “+”.
With `O=C(O)CI` [Iodoacetic acid], in test [1], the Inhibition result is “+”. Besides, in test [5], the “rate constant for inactivation of ICE” value was 24 M⁻¹ s⁻¹. For the same molecule, the half-time of inhibition in test [5] (100 mM iodoacetate, substrate at 1 * Km) stood at 9.13 min. The ICE inactivated in test [5] (100 mM radiolabeled iodoacetate, 2.8 mM Ac-Tyr-Val-Ala-Asp-AMC (200 x Km) included) is on record as less than 2%.
For `CC(=O)N[C@@H](Cc1ccc(O)cc1)C(=O)N[C@H](C(=O)N[C@@H](C)C(=O)N[C@H](C=O)CC(=O)O)C(C)C` [L-709,049], the “inhibition of IL-1β precursor cleavage to the mature 17 kDa form” value in test [6] is “completely inhibited”.
As to `CC(=O)N[C@@H](CC(C)C)C(=O)N[C@@H](CC(C)C)C(=O)N[C@H](C=O)CCCNC(=N)N` [Leupeptin], the Inhibition result in test [1] is reported as “-”.
The same measure, in the same setting: then `CCN1C(=O)C=CC1=O` [N-ethyl maleimide], with “+”.
Regarding `O=C1C=CC(=O)N1c1ccccc1` [N-phenyl maleimide], in test [1] (Conc. 1 mM), the Inhibition result is “+”.
For the molecule `Cc1ccc(S(=O)(=O)N[C@@H](CCCCN)C(=O)CCl)cc1` [TLCK], the Inhibition entry in test [1] was “+”.
Same read-out and setting: next, `Cc1ccc(S(=O)(=O)N[C@@H](Cc2ccccc2)C(=O)CCl)cc1` [TPCK]: “+”.
Consider Ac-Tyr(dAla)-Val-Ala-Asp-CHO, for which the “less potent at inhibiting ICE activity” value in test [7] is on record as 300 fold.
PMSF: the Inhibition result in test [1] is recorded as “-”.
